Assay results: patent US11076594B2, “Pyrazolone compound or salt thereof, preparation method therefor, herbicide composition and use thereof” (QINGDAO KINGAGROOT CHEMICAL COMPOUNDS CO., LTD., priority 2015, dated 2021)

Key:
Format in all cases: in vivo
sagittaria trifolia = experiment: weed control effect evaluation in rice field; design: key: Level 10: completely dead; Level 9: above 95% growth control rate; Level 8: above 90% growth control rate; Level 7: above 80% growth control rate; Level 6: above 70% growth control rate; Level 5: above 60% growth control rate; Level 4: above 50% growth control rate; Level 3: above 20% growth control rate; Level 2: 5%-20% growth control rate; Level 1: below 5% growth control rate; conditions: 125 g/ha ai; rice field pot; 14 days after treatment; resistant to pyrazosulfuron-ethyl
Excerpt: (§1) The activity level standard of harmful plant destruction (i.e. growth control rate) is as follows: Rice field soil was loaded into a 1/1,000,000 ha pot. The seeds of echinochloa, scirpus juncoides, bidens tripartite and sagittaria trifolia were sowed and gently covered with soil, then left to stand still in greenhouse in the state of 0.5-1 cm of water storage. The tuber of sagittaria trifolia was planted in the next day or 2 days later. It was kept at 3-4 cm of water storage thereafter. The weeds were treated by dripping the WP or SC water diluents prepared according to the common preparation method of the compounds of the present invention with pipette homogeneously to achieve specified effective amount when echinochloa, scirpus juncoides and bidens tripartite reached 0.5 leaf stage and sagittaria trifolia reached the time point of primary leaf stage. The fertility condition of echinochloa, scirpus juncoides, bidens tripartite and sagittaria trifolia 14 days after the treatment of the compound of the invention and the fertility condition of rice 21 days after the treatment of the compound of the invention respectively with the naked eye.

echinochloa [1] = experiment: weed control effect evaluation in rice field; design: key: Level 10: completely dead; Level 9: above 95% growth control rate; Level 8: above 90% growth control rate; Level 7: above 80% growth control rate; Level 6: above 70% growth control rate; Level 5: above 60% growth control rate; Level 4: above 50% growth control rate; Level 3: above 20% growth control rate; Level 2: 5%-20% growth control rate; Level 1: below 5% growth control rate; conditions: 125 g/ha ai; rice field pot; 14 days after treatment; resistant to pyrazosulfuron-ethyl
Excerpt: as §1

bidens tripartite = experiment: weed control effect evaluation in rice field; design: key: Level 10: completely dead; Level 9: above 95% growth control rate; Level 8: above 90% growth control rate; Level 7: above 80% growth control rate; Level 6: above 70% growth control rate; Level 5: above 60% growth control rate; Level 4: above 50% growth control rate; Level 3: above 20% growth control rate; Level 2: 5%-20% growth control rate; Level 1: below 5% growth control rate; conditions: 125 g/ha ai; rice field pot; 14 days after treatment; resistant to pyrazosulfuron-ethyl
Excerpt: as §1

scirpus juncoides = experiment: weed control effect evaluation in rice field; design: key: Level 10: completely dead; Level 9: above 95% growth control rate; Level 8: above 90% growth control rate; Level 7: above 80% growth control rate; Level 6: above 70% growth control rate; Level 5: above 60% growth control rate; Level 4: above 50% growth control rate; Level 3: above 20% growth control rate; Level 2: 5%-20% growth control rate; Level 1: below 5% growth control rate; conditions: 125 g/ha ai; rice field pot; 14 days after treatment; resistant to pyrazosulfuron-ethyl
Excerpt: as §1

rice (japonica rice) = experiment: transplanted rice safety evaluation; conditions: 125 g/ha ai; treated 5 days after transplantation; 21 days after treatment
Description: The activity level standard of harmful plant destruction (i.e. growth control rate) is as follows: In addition, the rice field soil that loaded into the 1/1,000,000 ha pot was leveled to keep water storage at 3-4 cm depth. The 3 leaf stage rice (japonica rice) was transplanted at 3 cm of transplanting depth the next day. The compound of the present invention was treated by the same way after 5 days of transplantation. The fertility condition of echinochloa, scirpus juncoides, bidens tripartite and sagittaria trifolia 14 days after the treatment of the compound of the invention and the fertility condition of rice 21 days after the treatment of the compound of the invention respectively with the naked eye.

wheat = experiment: post-emergence stage experiment, crop (Table 1); conditions: post-emergence spray at 4-5 leaf stage, 250 g/ha active ingredient with 450 kg/ha water, rated after 3 weeks in greenhouse
Procedure, shortened: (§2)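 Post-emergence spray: compounds dissolved in acetone, Tween 80 added, diluted with water, applied to plants at 4-5 leaf stage. Plants kept 3 wk in greenhouse; activity scored as fresh-weight control rate.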

corn = experiment: post-emergence stage experiment, crop (Table 1); conditions: post-emergence spray at 4-5 leaf stage, 250 g/ha active ingredient with 450 kg/ha water, rated after 3 weeks in greenhouse
Procedure, shortened: as §2

rice = experiment: post-emergence stage experiment, crop (Table 1); conditions: post-emergence spray at 4-5 leaf stage, 250 g/ha active ingredient with 450 kg/ha water, rated after 3 weeks in greenhouse
Procedure, shortened: as §2

echinochloa [2] = experiment: weed control effect in post-emergence stage (Table 1); design: key: Level 10: completely dead; Level 9: above 95% growth control rate; Level 8: above 90% growth control rate; Level 7: above 80% growth control rate; Level 6: above 70% growth control rate; Level 5: above 60% growth control rate; Level 4: above 50% growth control rate; Level 3: above 20% growth control rate; Level 2: 5%-20% growth control rate; Level 1: below 5% growth control rate; conditions: post-emergence spray at 4-5 leaf stage, 250 g/ha active ingredient with 450 kg/ha water, rated after 3 weeks in greenhouse
Procedure, shortened: as §2

bidens bipinnata = experiment: as above; design: key: Level 10: completely dead; Level 9: above 95% growth control rate; Level 8: above 90% growth control rate; Level 7: above 80% growth control rate; Level 6: above 70% growth control rate; Level 5: above 60% growth control rate; Level 4: above 50% growth control rate; Level 3: above 20% growth control rate; Level 2: 5%-20% growth control rate; Level 1: below 5% growth control rate; conditions: post-emergence spray at 4-5 leaf stage, 250 g/ha active ingredient with 450 kg/ha water, rated after 3 weeks in greenhouse
Procedure, shortened: as §2

rorippa indica = experiment: as above; design: key: Level 10: completely dead; Level 9: above 95% growth control rate; Level 8: above 90% growth control rate; Level 7: above 80% growth control rate; Level 6: above 70% growth control rate; Level 5: above 60% growth control rate; Level 4: above 50% growth control rate; Level 3: above 20% growth control rate; Level 2: 5%-20% growth control rate; Level 1: below 5% growth control rate; conditions: post-emergence spray at 4-5 leaf stage, 250 g/ha active ingredient with 450 kg/ha water, rated after 3 weeks in greenhouse
Procedure, shortened: as §2

foxtail = experiment: as above; design: key: Level 10: completely dead; Level 9: above 95% growth control rate; Level 8: above 90% growth control rate; Level 7: above 80% growth control rate; Level 6: above 70% growth control rate; Level 5: above 60% growth control rate; Level 4: above 50% growth control rate; Level 3: above 20% growth control rate; Level 2: 5%-20% growth control rate; Level 1: below 5% growth control rate; conditions: post-emergence spray at 4-5 leaf stage, 250 g/ha active ingredient with 450 kg/ha water, rated after 3 weeks in greenhouse
Procedure, shortened: as §2

crab grass = experiment: as above; design: key: Level 10: completely dead; Level 9: above 95% growth control rate; Level 8: above 90% growth control rate; Level 7: above 80% growth control rate; Level 6: above 70% growth control rate; Level 5: above 60% growth control rate; Level 4: above 50% growth control rate; Level 3: above 20% growth control rate; Level 2: 5%-20% growth control rate; Level 1: below 5% growth control rate; conditions: post-emergence spray at 4-5 leaf stage, 250 g/ha active ingredient with 450 kg/ha water, rated after 3 weeks in greenhouse
Procedure, shortened: as §2

Indian mallow = experiment: as above; design: key: Level 10: completely dead; Level 9: above 95% growth control rate; Level 8: above 90% growth control rate; Level 7: above 80% growth control rate; Level 6: above 70% growth control rate; Level 5: above 60% growth control rate; Level 4: above 50% growth control rate; Level 3: above 20% growth control rate; Level 2: 5%-20% growth control rate; Level 1: below 5% growth control rate; conditions: post-emergence spray at 4-5 leaf stage, 250 g/ha active ingredient with 450 kg/ha water, rated after 3 weeks in greenhouse
Procedure, shortened: as §2

Row | Compound | Sagittaria trifolia weed control effect (activity level) (sagittaria trifolia) | Echinochloa weed control effect (activity level) (echinochloa [1]) | Bidens tripartite weed control effect (activity level) (bidens tripartite) | Scirpus juncoides weed control effect (activity level) (scirpus juncoides) | Rice (activity level, transplanted rice safety) (rice (japonica rice)) | effect on crop, Wheat (level) (wheat) | effect on crop, Corn (level) (corn) | effect on crop, Rice (level) (rice) | weed control effect, Echinochloa (level) (echinochloa [2]) | weed control effect, Bidens bipinnata (level) (bidens bipinnata) | weed control effect, Rorippa indica (level) (rorippa indica) | weed control effect, Green foxtail (level) (foxtail) | weed control effect, Crab grass (level) (crab grass) | weed control effect, Indian mallow (level) (Indian mallow)
1 | Cn1nc(C2CC2)c(C(=O)c2ccc(C(F)(F)F)c(N3CCCC3=O)c2Cl)c1O [Compound 025] | 10 | 9 (Level 9: above 95% growth control rate) | 8 (Level 8: above 90% growth control rate) | 10 | 0 | 3 (Level 3: above 20% growth control rate) | 4 (Level 4: above 50% growth control rate) | 6 (Level 6: above 70% growth control rate) | 6 (Level 6: above 70% growth control rate) | 8 (Level 8: above 90% growth control rate) | 10 | 10 | 6 (Level 6: above 70% growth control rate) | 10
2 | Cc1nn(C)c(O)c1C(=O)c1ccc(C(F)(F)F)c(N2CCCCCC2=O)c1Cl [Compound 054] | 9 (Level 9: above 95% growth control rate) | 8 (Level 8: above 90% growth control rate) | 9 (Level 9: above 95% growth control rate) | 9 (Level 9: above 95% growth control rate) | 2 (Level 2: 5%-20% growth control rate) | 0 | – | 4 (Level 4: above 50% growth control rate) | 6 (Level 6: above 70% growth control rate) | 9 (Level 9: above 95% growth control rate) | 9 (Level 9: above 95% growth control rate) | 5 (Level 5: above 60% growth control rate) | 1 (Level 1: below 5% growth control rate) | 9 (Level 9: above 95% growth control rate)
3 | CCOc1c(C(=O)Oc2c(C(=O)c3ccc(C(F)(F)F)c(-n4cccn4)c3Cl)cnn2C)cnn1C [Compound 065] | 9 (Level 9: above 95% growth control rate) | 9 (Level 9: above 95% growth control rate) | 8 (Level 8: above 90% growth control rate) | 9 (Level 9: above 95% growth control rate) | 3 (Level 3: above 20% growth control rate) | 3 (Level 3: above 20% growth control rate) | 9 (Level 9: above 95% growth control rate) | 3 (Level 3: above 20% growth control rate) | 7 (Level 7: above 80% growth control rate) | 7 (Level 7: above 80% growth control rate) | 9 (Level 9: above 95% growth control rate) | 10 | 8 (Level 8: above 90% growth control rate) | 9 (Level 9: above 95% growth control rate)
4 | Cc1nn(C)c(O)c1C(=O)c1ccc(C(F)(F)F)c(-n2cccn2)c1Cl [Compound 068] | 10 | 10 | 10 | 9 (Level 9: above 95% growth control rate) | 1 (Level 1: below 5% growth control rate) | 3 (Level 3: above 20% growth control rate) | – | 5 (Level 5: above 60% growth control rate) | 10 | 10 | 9 (Level 9: above 95% growth control rate) | 10 | 5 (Level 5: above 60% growth control rate) | 10
5 | Cc1ccn(-c2c(C(F)(F)F)ccc(C(=O)c3c(C)nn(C)c3O)c2Cl)n1 [Compound 077] | 10 | 10 | 9 (Level 9: above 95% growth control rate) | 10 | 1 (Level 1: below 5% growth control rate) | 0 | – | 6 (Level 6: above 70% growth control rate) | 10 | 9 (Level 9: above 95% growth control rate) | 10 | 7 (Level 7: above 80% growth control rate) | 4 (Level 4: above 50% growth control rate) | 10
